# Test results reported in patent US20140315972A1, “RS)-2-(2-oxo-4-phenylpyrrolidin-1-yl)acetamide compound having modulatory activity with a commensurate effect, pharmaceutical substance (variants) and its application, composition (variants) thereof” (priority 2011, published 2014).
# Like-named read-outs stand apart in the source and are kept apart here. Marks after values point to notes of the source that are not given here.
# Key:
# mice [1] = assay: Duration of swimming in cold (2° C.) and normal (25° C.) water; type: in vivo; conditions: for Duration of swimming at day 28: 4-week administration 50 mg/kg
# Procedure: Stimulatory effect on the duration of swimming in cold (2° C.) and normal (25° C.) water (Table 8.1-8.1.1) of Phenotropil (25 and 50 mg/kg) compared with the control (distilled water) and Benzedrine (2.5 mg/kg) was studied in white outbred male mice (18-26 g) compared to control (distilled water) when intraperitoneally administered, 60 min after the administration and with a course administration for 4 weeks administration on day 28 (Table 8.1.2). […] At normal temperature of water, the effect of Benzedrine was not modified and stayed at 34%.
# The advantage of psychomodulator Phenotropil is obvious both with the single dose and the course use, by the effect on physical performance and stability of the body, both in normal and more adverse temperature conditions.
# mice [2] = type: in vivo; conditions: for Mortality: mice
# Procedure: Chemical convulsive agents (bicuculline, corazol, thiosemicarbazide, and picrotoxin) and the maximum electroconvulsive shock (ECS) model in the experiment the different types of seizures with their various implementation mechanisms of pathological conditions. The anticonvulsant activity of Phenotropil after a single dose for all the investigated models manifests in a pronounced positive effect on prevention of mortality in the studied doses of 100, 300, 400, 600 mg/kg. In case of bicuculline-induced seizures, mortality in the control group was 70.0%. Phenotropil (100, 300, 600 mg/kg) was effective in 100% of cases. The metrazole-induced mortality in the control was 60.0% and the positive effect of Phenotropil for mortality vs control was 45-35-0%, depending on the dose, respectively. The thiosemicarbazide-induced mortality was 90.0% in the control group, while when treated with Phenotropil (100, 300, 600 mg/kg), respectively: 60-0-0%. […] In case of MES, mortality in the control group was 100.0%, while in the Phenotropil groups (100, 300, 400 mg/kg) it was 20-0-0%, respectively. […] The anticonvulsant effect of Phenotropil prevents the development of seizures and affects the outcome of convulsive states, preventing mortality in all applied models of seizures in animals. The mechanisms of action of anticonvulsant activity of Phenotropil are probably also commensurate, various and depend on the initial state.
# patients = assay: Seborrhea of scalp and face skin, topical solution; type: in vivo, human; conditions: for Efficacy expressed in points on a 4-point scale (seborrhea): humans
# Procedure: A study of effect of Phenotropil on the scalp and face skin in seborrhea oleosa and on the scalp skin in dry seborrhea, as well in the mixed form, was performed on mixed groups of both sexes (15-37 years). The 0.1% Phenotropil solution was used. In the group with mixed form, additional Phenotropil tablets were administered at a dose of 100 mg per day (in the morning). The baseline examinations were used as control. The prepared samples were rubbed into the scalp once a day 1 or 2 hours before bedtime. In the case of acneiform rash, the skin was wiped in the morning and evening by cotton pads soaked (as usual lotion) by 0.1% aqueous Phenotropil. Washing the hair using shampoo was not recommended. A neutral baby soap “Alice” by OAO Svoboda and the rinse prepared with 25 ml of lemon juice and 100 mg Phenotropil powder per 1000.0 ml water were used. Studies were conducted for 28 calendar days with monitoring examinations every 14 days. In the dry seborrhea group, three patients withdrew from the study after two weeks due to reluctance to undergo further examination; they found it difficult to comply with the regime of the detergents use. The skin state was assessed by a 4-point system, where 0—absent, 1—the effect intensity less than 50.0%, 2—the effect intensity more than 50.0%, 3—the effect intensity more than 80% but less than 100.0% of the cases.
# rats = assay: Locomotor activity in Opto-varimex, HEF and LEF rats; type: in vivo
# Excerpt: (RS)-2-(2-oxo-4-phenylpyrrolidin-1-yl)acetamide has a psychomodulatory activity with the commensurate effect on motor activity of rats.
compound,measurement,setting,value
"NC(=O)CN1CC(c2ccccc2)CC1=O (racemic) [Compound 1, (RS)-2-(2-oxo-4-phenylpyrrolidine-1-yl)acetamide]",Duration of swimming,mice [1]; single dose 25 mg/kg i.p.,161.90 ± 15.00 min
same,Duration of swimming,mice [1]; single dose 50 mg/kg i.p.,209.83 ± 14.85 min
same,Duration of swimming at day 28,mice [1]; water 2° C.,2.34 ± 0.15 min
same,Duration of swimming,"mice [1]; water 2° C., single dose 25 mg/kg i.p.",2.10 ± 0.17 min
same,Duration of swimming,"mice [1]; water 2° C., single dose 50 mg/kg i.p.",2.30 ± 0.22 min
same,Duration of swimming at day 28,mice [1]; water 25° C.,222.03 ± 10.95 min
same,Duration of swimming vs control,"mice [1]; water 25° C., single dose 25 mg/kg i.p.",+35%
same,"effective against mortality, % of cases","mice [2]; bicuculline-induced seizures, 100, 300, 600 mg/kg",100%
same,Mortality,mice [2]; Bicuculline 3.0 mg/kg + 100.0 mg/kg,0* %
same,Mortality,mice [2]; Bicuculline 3.0 mg/kg + 300.0 mg/kg,0* %
same,Mortality,"mice [2]; Corazol 110.0 mg/kg + 100.0 mg/kg, listed as Phenotropil",45%
same,Mortality,"mice [2]; Corazol 110.0 mg/kg + 300.0 mg/kg, listed as Phenotropil",35%
same,Mortality,"mice [2]; Corazol 110.0 mg/kg + 600.0 mg/kg, listed as Phenotropil",0%
same,Mortality,"mice [2]; MES + 100.0 mg/kg, listed as Phenotropil, 100 mg/kg",20%
same,Mortality,"mice [2]; MES + 300.0 mg/kg, listed as Phenotropil, 300 mg/kg",0%
same,Mortality,"mice [2]; MES + 400.0 mg/kg, listed as Phenotropil, 400 mg/kg",0%
same,Mortality,"mice [2]; Thiosemicarbazide 18.0 mg/kg + 100.0 mg/kg, listed as Phenotropil",60%
same,Mortality,"mice [2]; Thiosemicarbazide 18.0 mg/kg + 300.0 mg/kg, listed as Phenotropil",0%
same,Mortality,"mice [2]; Thiosemicarbazide 18.0 mg/kg + 600.0 mg/kg, listed as Phenotropil",0%
same,therapeutic effect compared to control with simultaneous tablets,patients; 0.1% solution + tablets 100 mg per day,300.0%
same,therapeutic effect in seborrhoea compared with control,"patients; 0.1% solution, 28 days",200.0%
same,Efficacy expressed in points on a 4-point scale (seborrhea),"patients; DF (dry form), topically 0.1% aqueous solution",2* (the effect intensity more than 50.0%)
same,Efficacy expressed in points on a 4-point scale (seborrhea),"patients; MF (mixed form), oral 100 mg",1* (the effect intensity less than 50.0%)
same,Efficacy expressed in points on a 4-point scale (seborrhea),"patients; MF (mixed form), topically 0.1% aqueous solution + 100 mg orally",3* (the effect intensity more than 80% but less than 100.0% of the cases)
same,Efficacy expressed in points on a 4-point scale (seborrhea),"patients; OF (oily form), topically 0.1% aqueous solution",2* (the effect intensity more than 50.0%)
same,locomotor activity vs control,"rats; HEF rats, 5 mg/kg i.g., 0-5 min",−0.06%
same,locomotor activity vs control,"rats; HEF rats, 5 mg/kg i.g., 5-10 min",+7.36% *
same,locomotor activity vs control,"rats; HEF rats, 5 mg/kg i.g., 10-15 min",−7.36%
same,locomotor activity vs control,"rats; HEF rats, 5 mg/kg i.g., 15-20 min",−96.53% *
same,locomotor activity vs control,"rats; HEF rats, 5 mg/kg i.g., 20-25 min",−103.15% *
same,locomotor activity vs control,"rats; HEF rats, 5 mg/kg i.g., 25-30 min",+207.1% *
same,locomotor activity vs control,"rats; HEF rats, 10 mg/kg i.g., 0-5 min",−4.2%
same,locomotor activity vs control,"rats; HEF rats, 10 mg/kg i.g., 5-10 min",−8.4%
same,locomotor activity vs control,"rats; HEF rats, 10 mg/kg i.g., 10-15 min",−3.73%
same,locomotor activity vs control,"rats; HEF rats, 10 mg/kg i.g., 15-20 min",+7.44%
same,locomotor activity vs control,"rats; HEF rats, 10 mg/kg i.g., 20-25 min",−4.72%
same,locomotor activity vs control,"rats; HEF rats, 10 mg/kg i.g., 25-30 min",0%
same,locomotor activity vs control,"rats; HEF rats, 10 mg/kg i.g., accumulated, listed as Phenotropil, 10 mg/kg",−4.23%
same,locomotor activity vs control,"rats; LEF rats, 5 mg/kg i.g., 0-5 min",+15.0% *
same,locomotor activity vs control,"rats; LEF rats, 5 mg/kg i.g., 5-10 min",+6.18%
same,locomotor activity vs control,"rats; LEF rats, 5 mg/kg i.g., 10-15 min",+9.74%
same,locomotor activity vs control,"rats; LEF rats, 5 mg/kg i.g., 15-20 min",+29.1% *
same,locomotor activity vs control,"rats; LEF rats, 5 mg/kg i.g., 20-25 min",+2.1%
same,locomotor activity vs control,"rats; LEF rats, 5 mg/kg i.g., 25-30 min",+10.0% *
same,locomotor activity vs control,"rats; LEF rats, 10 mg/kg i.g., 0-5 min",+4.31%
same,locomotor activity vs control,"rats; LEF rats, 10 mg/kg i.g., 5-10 min",+11.31% *
same,locomotor activity vs control,"rats; LEF rats, 10 mg/kg i.g., 10-15 min",+27.85%
same,locomotor activity vs control,"rats; LEF rats, 10 mg/kg i.g., 15-20 min",+7.23 * %
same,locomotor activity vs control,"rats; LEF rats, 10 mg/kg i.g., 20-25 min",+14.39% *
same,locomotor activity vs control,"rats; LEF rats, 10 mg/kg i.g., 25-30 min",+3.75%
same,locomotor activity vs control,"rats; population (normal) rats, 5 mg/kg i.g., 0-5 min",+18.06% *
same,locomotor activity vs control,"rats; population (normal) rats, 5 mg/kg i.g., 5-10 min",−5.95%
same,locomotor activity vs control,"rats; population (normal) rats, 5 mg/kg i.g., 10-15 min",−13.03% *
same,locomotor activity vs control,"rats; population (normal) rats, 5 mg/kg i.g., 15-20 min",−22.55% *
same,locomotor activity vs control,"rats; population (normal) rats, 5 mg/kg i.g., 20-25 min",+50.76% *
same,locomotor activity vs control,"rats; population (normal) rats, 5 mg/kg i.g., 25-30 min",+50.97% *
same,locomotor activity vs control,"rats; population (normal) rats, 5 mg/kg i.g., accumulated",+4.28% *
same,locomotor activity vs control,"rats; population (normal) rats, 10 mg/kg i.g., 0-5 min",+38.8% *
same,locomotor activity vs control,"rats; population (normal) rats, 10 mg/kg i.g., 5-10 min",−5.78%
same,locomotor activity vs control,"rats; population (normal) rats, 10 mg/kg i.g., 10-15 min",+5.56%
same,locomotor activity vs control,"rats; population (normal) rats, 10 mg/kg i.g., 15-20 min",+42.91 * %
same,locomotor activity vs control,"rats; population (normal) rats, 10 mg/kg i.g., 20-25 min",+95.6% *
same,locomotor activity vs control,"rats; population (normal) rats, 10 mg/kg i.g., 25-30 min",−91.47% *
same,locomotor activity vs control,"rats; population (normal) rats, 10 mg/kg i.g., accumulated",+18.0% *
